In the supplement of paper PMC4932681:

How the values were obtained:
Experiment in all cases: viability inhibition at highest dose (% inhibition); higher = more growth inhibition
[1] = test system: MCF-7 Tam1; details: 4-OH-tamoxifen in medium 1 µM; 72 h
In short: (§1)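 CellTiter-Glo viability was the readout, taken on a PHERAstar and normalised to vehicle-only and positive controls. It was measured after breast cancer cell lines and their resistant derivatives spent 72 h at 37 °C in 384-well plates containing library drugs at five concentrations spanning a 10 000-fold range, with 1 μM of the selecting drug in the medium of resistant lines. From logistic dose–response fits in the Breeze pipeline came drug sensitivity score, relative IC50 (curve midpoint) and top-dose inhibition.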

[2] = test system: BT-474 Tam2; details: 4-OH-tamoxifen in medium 1 µM; 72 h
In short: as §1

[3] = test system: T-47D Tam1; details: 4-OH-tamoxifen in medium 1 µM; 72 h
In short: as §1

[4] = test system: ZR-75-1 Tam1; details: 4-OH-tamoxifen in medium 1 µM; 72 h
In short: as §1

[5] = test system: BT-474 Tam1; details: 4-OH-tamoxifen in medium 1 µM; 72 h
In short: as §1

[6] = test system: T-47D; details: 72 h
In short: as §1

[7] = test system: ZR-75-1; details: 72 h
In short: as §1

[8] = test system: T-47D Tam2; details: 4-OH-tamoxifen in medium 1 µM; 72 h
In short: as §1

[9] = test system: BT-474; details: 72 h
In short: as §1

[10] = test system: ZR-75-1 Tam2; details: 4-OH-tamoxifen in medium 1 µM; 72 h
In short: as §1

[11] = test system: MCF-7; details: 72 h
In short: as §1

| Structure (SMILES) | viability inhibition at highest dose [1] | viability inhibition at highest dose [2] | viability inhibition at highest dose [3] | viability inhibition at highest dose [4] | viability inhibition at highest dose [5] | viability inhibition at highest dose ([6]; 4-OH-tamoxifen in medium 0 µM) | viability inhibition at highest dose ([6]; 4-OH-tamoxifen in medium 1 µM) | viability inhibition at highest dose ([7]; 4-OH-tamoxifen in medium 0 µM) | viability inhibition at highest dose ([7]; 4-OH-tamoxifen in medium 1 µM) | viability inhibition at highest dose [8] | viability inhibition at highest dose ([9]; 4-OH-tamoxifen in medium 0 µM) | viability inhibition at highest dose ([9]; 4-OH-tamoxifen in medium 1 µM) | viability inhibition at highest dose [10] | viability inhibition at highest dose ([11]; 4-OH-tamoxifen in medium 0 µM) | viability inhibition at highest dose ([11]; 4-OH-tamoxifen in medium 1 µM) |
| --- | --- | --- | --- | --- | --- | --- | --- | --- | --- | --- | --- | --- | --- | --- | --- |
| O=P(O)(NCCCl)NCCCl [Ifosfamide mustard] (drug 10000 nM) | -11 | -5.04 | -3.5 | 1.78 | -11.5 | -13.8 | -10.1 | -10.9 | -4.6 | -1.32 | -4.47 | -15.1 | 0.309 | -19.2 | -14.2 |
| COc1cc(F)c(F)c(Nc2ccc(I)cc2F)c1NS(=O)(=O)C1(C[C@H](O)CO)CC1 [Refametinib (RDEA119)] (drug 10000 nM) | 33.1 | 14 | 31.2 | 8.84 | 36.3 | 24.3 | 12.7 | 20.6 | 14.9 | 22 | 9.83 | 54.3 | 10.6 | 44.2 | 39.9 |
| COc1cc2c(Oc3ccc4[nH]c(C)cc4c3F)ncnc2cc1OCCCN1CCCC1 [Cediranib (AZD2171, Recentin)] (drug 1000 nM) | 1.79 | 6.19 | 2.94 | 4.06 | 15.2 | 2.79 | 7.26 | 9.26 | 4.94 | 2.12 | 1.02 | 39.4 | 5.44 | 11.5 | 2.46 |
| CC[C@]1(O)C[C@H]2CN(CCc3c([nH]c4ccccc34)[C@@](C(=O)OC)(c3cc4c(cc3OC)N(C=O)[C@H]3[C@@](O)(C(=O)OC)[C@H](OC(C)=O)[C@]5(CC)C=CCN6CC[C@]43[C@@H]65)C2)C1 [Vincristine] (drug 10000 nM) | 12.1 | 84.9 | 68.8 | 29.2 | 93.7 | 16.5 | 31.2 | 28.7 | 28.5 | 59 | 47.4 | 83.8 | 35.9 | 56.6 | 54.4 |
| Oc1nc(-c2ccc(C(F)(F)F)cc2)nc2c1CSCC2 [XAV-939] (drug 10000 nM) | -5.47 | 10.1 | 22.1 | 3.25 | 9.15 | -0.891 | 1.95 | 5.02 | 3.5 | -6.24 | 2.3 | -20.3 | 12.7 | 7.77 | 11.1 |
| CC[C@@H]1C(=O)N(C)c2cnc(Nc3ccc(C(=O)NC4CCN(C)CC4)cc3OC)nc2N1C1CCCC1 [BI 2536] (drug 1000 nM) | 7.18 | 11.8 | 30.3 | 26.8 | 27.9 | 29.2 | 19.9 | 12.7 | 26.7 | 34 | 26 | 48.3 | 21.6 | 39 | 29.9 |
| Cc1ccc(NC(=O)c2ccc(CN3CCN(C)CC3)cc2)cc1Nc1nc(-c2cccnc2)cs1 [Masitinib] (drug 10000 nM) | 26.5 | 87 | 34.5 | 18.2 | 93.1 | 42 | 57.1 | 9.35 | 20.3 | 40.7 | 21.2 | 71.6 | 32.8 | 39.5 | 40.7 |
